One test addresses T1, GPR10 (Homo sapiens, UniProt P49683).
T1 sequence (P49683 1-370): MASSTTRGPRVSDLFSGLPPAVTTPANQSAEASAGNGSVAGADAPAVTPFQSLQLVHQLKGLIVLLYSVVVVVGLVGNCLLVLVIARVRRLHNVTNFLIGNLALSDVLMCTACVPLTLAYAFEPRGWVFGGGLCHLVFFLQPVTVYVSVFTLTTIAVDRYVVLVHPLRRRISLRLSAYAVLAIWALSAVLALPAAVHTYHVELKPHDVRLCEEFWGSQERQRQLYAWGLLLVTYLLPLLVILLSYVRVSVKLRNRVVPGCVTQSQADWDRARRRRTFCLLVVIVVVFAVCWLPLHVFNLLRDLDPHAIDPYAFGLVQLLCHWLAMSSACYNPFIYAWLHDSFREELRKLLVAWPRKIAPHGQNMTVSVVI
Briefly: Competitive binding of 125I-human PrRP31 to plated CHO-K1 cells expressing GPR10. Also noted: host or cells: CHO-K1. As to conditions: for Ki: CHO-K1 cells, 0.03 nM radioligand, 60 min 25°C, Cheng-Prusoff, mean ± SEM of at least three experiments, SEM; for % binding human PrRP31 (GPR10): Ki relative to human PrRP31 = 100; for 125I-human PrRP31 binding to human GPR10, Ki: single experiments (replicates listed below each other). The procedure:
CHO-K1 cells expressing the GPR10 receptor (Thermo Fisher Scientific Inc., Waltham, MA, USA) were grown according to the manufacturer's instructions. Saturation and competitive binding experiments were performed according to the methods of Motulsky and Neubig. […] The experiments were performed on plated cells that were incubated for 60 min at 25°C. Non-specific binding was determined using 10^−5 M PrRP31. The binding assays involving human NPFF2 receptor membranes obtained from Perkin Elmer were performed as described in [18].
Data are presented as the means ± SEM. The competitive binding curves were plotted using GraphPad software (San Diego, CA, USA), and the best fits were compared for single-binding-site models (IC50 values were obtained from nonlinear regression analysis). Inhibition constants (Ki) were calculated from the IC50 values using the Cheng-Prusoff equation [23]. The concentration of the radioligand was 0.1 nM for cell membranes of CHO-K1 cells overexpressing NPFF2 and 0.03 nM for CHO-K1 cells overexpressing GPR10.

A further test concerns c-Fos. Briefly: Fos immunohistochemistry in mouse brain. The test is classed as in vivo. Conditions: overnight fasted mice, 5 mg/kg SC, 90 min after injection, n = 4, vs saline. The protocol: Ninety minutes after injection, the mice were deeply anesthetized with sodium pentobarbital (50 mg/kg, intraperitoneally) and perfused transcardially. The brains were withdrawn, and c-Fos immunoreactivity was determined as described in [19, 20].
For the immunohistochemical study, the c-Fos rabbit monoclonal antibody (Cell Signaling Technology, #2250S) detecting total level of endogenous c-Fos protein was used in final dilution (1:2000) for 48 h (4°C).

Test [1] can be described thus: Body weight of DIO mice during 2-week SC treatment. In kind it is in vivo, C57BL/6 mice. Conditions: for Decrease of average BW at the end of the experiment: 5 mg/kg SC twice a day, 2 weeks. From the text: (§1) Inbred C57BL/6 male mice that were 3 weeks old were obtained from Charles River Laboratories (Sulzfeld, Germany). […] From 8 weeks of age, the mice were fed in house made high-fat (HF) diet to induce obesity. […] After twelve weeks of HF-diet feeding, two weeks of SC administration of lipidized PrRP analogs was initiated while the mice were kept on the HF diet. The following experimental groups were established: […] Food intake and BW were monitored daily during the dosing period.

Test [2] can be described thus: Cumulative food intake of DIO mice during 2-week SC treatment. The test is classed as in vivo, C57BL/6 mice. As to conditions: two weeks of SC treatment, 5 mg/kg twice a day, in words.
Excerpt: as §1

Several values for one entry are separate records, joined by “and”; a condition that tells them apart may be missing. Equal entries are not always repeated. Starred links: 1 amine or outer side, 2 acyl side, 3 side chain; linkers in the order of their positions; H or OH if unused. Residues, ends and D or L forms follow the SMILES beside them. Groups on a side chain read outwards from the residue. *: point of attachment. TTDA(Palmitoyl) = CCCCCCCCCCCCCCCC(=O)NCCCOCCOCCOCCCN*; γGlu = O=C(O)[C@H](CCC(=O)[*:2])N[*:1]; Palmitoyl = CCCCCCCCCCCCCCCC(=O)*; Suc = O=C(CCC(=O)[*:2])[*:1]

By Ki is commonly meant the dissociation constant of the complex between target and ligand, obtained from inhibition or displacement. Low values mean a stronger hold on the target, high ones a looser hold on the target. For the compound `CCCCCCCCCCCCCCCC(=O)N[C@@H](CCC(=O)NCCCC[C@H](NC(=O)[C@@H](NC(=O)[C@H](CCC(=O)O)NC(=O)[C@H](CCSC)NC(=O)[C@H](CO)NC(=O)[C@H](Cc1c[nH]cn1)NC(=O)[C@H](CCCNC(=N)N)NC(=O)[C@H](Cc1c[nH]cn1)NC(=O)[C@@H](NC(=O)[C@H](CCCNC(=N)N)NC(=O)[C@@H](N)CO)[C@@H](C)O)[C@@H](C)CC)C(=O)N[C@H](C(=O)N1CCC[C@H]1C(=O)N[C@@H](CC(=O)O)C(=O)N[C@H](C(=O)N[C@@H](CC(N)=O)C(=O)N1CCC[C@H]1C(=O)N[C@@H](C)C(=O)N[C@@H](Cc1c[nH]c2ccccc12)C(=O)N[C@@H](Cc1ccc(O)cc1)C(=O)N[C@@H](C)C(=O)N[C@@H](CO)C(=O)N[C@@H](CCCNC(=N)N)C(=O)NCC(=O)N[C@H](C(=O)N[C@@H](CCCNC(=N)N)C(=O)N1CCC[C@H]1C(=O)N[C@H](C(=O)NCC(=O)N[C@@H](CCCNC(=N)N)C(=O)N[C@@H](Cc1ccccc1)C(N)=O)C(C)C)[C@@H](C)CC)[C@@H](C)CC)[C@@H](C)O)C(=O)O` [analog 1] (H-SRTHRHSMEIK([γGlu-Palmitoyl])TPDINPAWYASRGIRPVGRF-NH2; N-terminus assumed), at GPR10, affinity was put at a Ki of 5.01 ± 1.03 nM; the “% binding human PrRP31 (GPR10)” value turned out to be 91%; the “125I-human PrRP31 binding to human GPR10, Ki” value (“125I-human PrRP31 binding” for short) was 9.92 nM and 5.47 nM and 4.23 nM and 3.01 nM and 1.75 nM and 3.77 nM and 6.96 nM. For the same compound, the “c-Fos immunoreactivity in Arc, PVN and DMN” value in the test on c-Fos is given as “significant increase”. The “Decrease of average BW at the end of the experiment” value in test [1] is given as 12%. Besides, in test [2], the “Food intake compared to the saline-treated control group” value is reported as “did not reach statistical significance”.
For `CCCCCCCCCCCCCCCC(=O)NCCCOCCOCCOCCCNC(=O)CCC(=O)NCCCC[C@H](NC(=O)[C@@H](NC(=O)[C@H](CCC(=O)O)NC(=O)[C@H](CCSC)NC(=O)[C@H](CO)NC(=O)[C@H](Cc1c[nH]cn1)NC(=O)[C@H](CCCNC(=N)N)NC(=O)[C@H](Cc1c[nH]cn1)NC(=O)[C@@H](NC(=O)[C@H](CCCNC(=N)N)NC(=O)[C@@H](N)CO)[C@@H](C)O)[C@@H](C)CC)C(=O)N[C@H](C(=O)N1CCC[C@H]1C(=O)N[C@@H](CC(=O)O)C(=O)N[C@H](C(=O)N[C@@H](CC(N)=O)C(=O)N1CCC[C@H]1C(=O)N[C@@H](C)C(=O)N[C@@H](Cc1c[nH]c2ccccc12)C(=O)N[C@@H](Cc1ccc(O)cc1)C(=O)N[C@@H](C)C(=O)N[C@@H](CO)C(=O)N[C@@H](CCCNC(=N)N)C(=O)NCC(=O)N[C@H](C(=O)N[C@@H](CCCNC(=N)N)C(=O)N1CCC[C@H]1C(=O)N[C@H](C(=O)NCC(=O)N[C@@H](CCCNC(=N)N)C(=O)N[C@@H](Cc1ccccc1)C(N)=O)C(C)C)[C@@H](C)CC)[C@@H](C)CC)[C@@H](C)O` [analog 2] (H-SRTHRHSMEIK([Suc-TTDA(Palmitoyl)])TPDINPAWYASRGIRPVGRF-NH2; N-terminus assumed), on GPR10, the Ki stood at 3.79 ± 0.47 nM; the “% binding human PrRP31 (GPR10)” value worked out at 121%; the “125I-human PrRP31 binding” value is 4.698 nM and 3.31 nM and 3.352 nM. In addition, the “Decrease of average BW at the end of the experiment” value in test [1] is 11.75%. Also, in test [2], the “Food intake compared to the saline-treated control group” value is “significantly reduced”.
In the case of `CCCCCCCCCCCCCCCC(=O)NCCCOCCOCCOCCCNC(=O)CCC(=O)NCCCC[C@H](NC(=O)[C@@H](NC(=O)[C@H](CCC(=O)O)NC(=O)[C@H](CCSC)NC(=O)[C@H](CO)NC(=O)[C@H](Cc1c[nH]cn1)NC(=O)[C@H](CCCNC(=N)N)NC(=O)[C@H](Cc1c[nH]cn1)NC(=O)[C@@H](NC(=O)[C@H](CCCNC(=N)N)NC(=O)[C@H](CO)NC(=O)CCC(=O)NCCCOCCOCCOCCCNC(=O)CCCCCCCCCCCCCCC)[C@@H](C)O)[C@@H](C)CC)C(=O)N[C@H](C(=O)N1CCC[C@H]1C(=O)N[C@@H](CC(=O)O)C(=O)N[C@H](C(=O)N[C@@H](CC(N)=O)C(=O)N1CCC[C@H]1C(=O)N[C@@H](C)C(=O)N[C@@H](Cc1c[nH]c2ccccc12)C(=O)N[C@@H](Cc1ccc(O)cc1)C(=O)N[C@@H](C)C(=O)N[C@@H](CO)C(=O)N[C@@H](CCCNC(=N)N)C(=O)NCC(=O)N[C@H](C(=O)N[C@@H](CCCNC(=N)N)C(=O)N1CCC[C@H]1C(=O)N[C@H](C(=O)NCC(=O)N[C@@H](CCCNC(=N)N)C(=O)N[C@@H](Cc1ccccc1)C(N)=O)C(C)C)[C@@H](C)CC)[C@@H](C)CC)[C@@H](C)O` [analog 3] ({TTDA(Palmitoyl)-Suc}-SRTHRHSMEIK([Suc-TTDA(Palmitoyl)])TPDINPAWYASRGIRPVGRF-NH2), on GPR10, the Ki came to 32.4 ± 3.57 nM; the “% binding human PrRP31 (GPR10)” value amounted to 14%; the “125I-human PrRP31 binding” value was 39 nM and 26.7 nM and 31.5 nM. In addition, the “Effect on BW” value in test [1] (two weeks of SC treatment, 5 mg/kg twice a day, in words) is given as “did not have any significant effects”. The “Food intake compared to the saline-treated control group” value in test [2] is listed as “did not have any significant effects”.

These data come from PMC5562305, “Impact of novel palmitoylated prolactin-releasing peptide analogs on metabolic changes in mice with diet-induced obesity” (PLoS ONE, 2017).
